In the assay the target is GacI-PP (Streptomyces glaucescens, UniProt B0B0T9). Kind of assay: LC-Q-TOF-MS of product V1P. It is filed as biochemical. Particulars: V1,7PP 1 mM, Tris-HCl 20 mM pH 7.5, 30 °C.

This note sets out measurements from publication PMC9669214 (Biochemistry, 2022).

Regarding `O=P(O)(O)OCC1=CC(OP(=O)(O)O)C(O)C(O)C1O` (stereo not shown) [compound 8, V1,7PP], the “LC-Q-TOF-MS of product V1P; MESG/PNP initial velocity” value is “The protein was then incubated with V1,7PP and the formation of V1P was confirmed”.
